Values quoted from earlier work as cited in patent publication US9034628B2, “Induction of gene expression using a high concentration sugar mixture” (Danisco US Inc., priority 2002, dated 2015).

Tested on: main cellulase genes in Trichoderma, cbh1, cbh2, egl1, and egl2

In the case of `OC[C@H]1O[C@@H](O[C@H]2C(O)O[C@H](CO)[C@@H](O)[C@@H]2O)[C@H](O)[C@@H](O)[C@@H]1O` (some centres unmarked) [sophorose], the “Expression of the cellulase genes” value (carbon source available for growth) is given as “induced several thousand fold” and the “expression level of the major cellobiohydrolase 1 (cbh1)” value (media containing inducing carbon source compared with glucose containing media (Ilmen et al. 1997)) is given as “up-regulated several thousand fold”.
